From US7223865B2, “Chromogenic compounds, and use thereof as enzyme substrates” (Biomerieux, priority 2003, dated 2007)

Tests used:
Assay in all cases: L-alanine-aminopeptidase activity on gelled medium, Example 8
Assay type in all cases: cell-based
Parameters in all cases: key to growth: ++ means good growth; + means moderate growth; +/− means poor growth; NG means no growth
[1] = tested on: Burkholderia cepacia (NCTC 10743)
Experimental: (§1) A gelled medium comprising these three substrates is prepared as follows: 30 mg of each substrate are dissolved (heating) in 10 ml of sterile distilled water. Ten ml of this solution are then added to 90 ml of Columbia agar kept molten at 50° C.
(§2) Various strains of microorganisms derived from the NCTC collection (National Collection of Type Cultures, Colindale, UK) were seeded onto the media thus obtained according to multipoint inoculation: for each strain, a drop of 10 μl of a suspension at 0.5 McFarland is deposited onto each of the culture media.
(§3) The colonies formed were examined visually after incubation for 24 h and 48 h. The color and the growth of these colonies were noted.

[2] = tested on: E. coli O157 (NCTC 12079)
Experimental: as §1, §2, §3

[3] = tested on: Enterobacter cloacae (NCTC 11936)
Experimental: as §1, §2, §3

[4] = tested on: Enterococcus faecalis (NCTC 12697)
Experimental: as §1, §2, §3

[5] = tested on: Enterococcus faecalis (NCTC 755)
Experimental: as §1, §2, §3

[6] = tested on: Enterococcus faecium (NCTC 7171)
Experimental: as §1, §2, §3

[7] = tested on: Klebsiella pneumoniae (NCTC 10896)
Experimental: as §1, §2, §3

[8] = tested on: Listeria monocytogenes (NCTC 11994)
Experimental: as §1, §2, §3

[9] = tested on: Pseudomonas aeruginosa (NCTC 10662)
Experimental: as §1, §2, §3

[10] = tested on: Salmonella poona (NCTC 4840)
Experimental: as §1, §2, §3

[11] = tested on: Salmonella typhimurium (NCTC 74)
Experimental: as §1, §2, §3

[12] = tested on: Serratia marcescens (NCTC 10211)
Experimental: as §1, §2, §3

[13] = tested on: Shigella sonnei (NCTC 9774)
Experimental: as §1, §2, §3

[14] = tested on: Staphylococcus aureus (NCTC 11939)
Experimental: as §1, §2, §3

[15] = tested on: Staphylococcus aureus (NCTC 6571)
Experimental: as §1, §2, §3

With `C[C@H](N)C(=O)N[C@@H](C)C(=O)N[C@@H](C)C(=O)Nc1ccc(-c2c3ccccc3[n+](C)c3ccccc23)cc1.[Cl-]` [L-Ala-L-Ala-L-Ala-4-AP-10-MA] as the compound, how does the color of colonies ([1]; 24 h) read?
The color of colonies was “Orange”.

And the growth ([1]; 24 h)?
Its growth is “++”.

What about the color of colonies ([1]; 48 h) of the same compound?
The color of colonies was “Orange”.

And the growth ([1]; 48 h)?
Its growth is “++”.

And the color of colonies ([2]; 24 h)?
The color of colonies was “Orange”.

And the growth ([2]; 24 h)?
Its growth is “++”.

And the color of colonies ([2]; 48 h)?
The color of colonies was “Orange”.

What about the growth ([2]; 48 h) of the same compound?
Its growth is “++”.

And the color of colonies ([3]; 24 h)?
The color of colonies was “Orange”.

What about the growth ([3]; 24 h) of the same compound?
The growth was “++”.

What about the color of colonies ([3]; 48 h) of the same compound?
The color of colonies was “Orange”.

What about the growth ([3]; 48 h) of the same compound?
The growth was “++”.

And the color of colonies ([4]; 24 h)?
Its color of colonies is “Colorless”.

And the growth ([4]; 24 h)?
Its growth is “++”.

What about the color of colonies ([4]; 48 h) of the same compound?
The color of colonies was “Colorless”.

What about the growth ([4]; 48 h) of the same compound?
Its growth is “++”.

And the color of colonies ([5]; 24 h)?
Its color of colonies is “Colorless”.

And the growth ([5]; 24 h)?
The growth was “++”.

And the color of colonies ([5]; 48 h)?
The color of colonies was “Colorless”.

And the growth ([5]; 48 h)?
The growth was “++”.

What about the color of colonies ([6]; 24 h) of the same compound?
Its color of colonies is “Colorless”.

What about the growth ([6]; 24 h) of the same compound?
The growth was “++”.

What about the color of colonies ([6]; 48 h) of the same compound?
Its color of colonies is “Colorless”.

What about the growth ([6]; 48 h) of the same compound?
The growth was “++”.

And the color of colonies ([7]; 24 h)?
The color of colonies was “Orange”.

And the growth ([7]; 24 h)?
The growth was “++”.

And the color of colonies ([7]; 48 h)?
The color of colonies was “Orange”.

And the growth ([7]; 48 h)?
The growth was “++”.

What about the color of colonies ([8]; 24 h) of the same compound?
The color of colonies was “Colorless”.

What about the growth ([8]; 24 h) of the same compound?
The growth was “++”.

And the color of colonies ([8]; 48 h)?
Its color of colonies is “Colorless”.

What about the growth ([8]; 48 h) of the same compound?
The growth was “++”.

And the color of colonies ([9]; 24 h)?
The color of colonies was “Orange”.

And the growth ([9]; 24 h)?
Its growth is “++”.

What about the color of colonies ([9]; 48 h) of the same compound?
Its color of colonies is “Orange”.

And the growth ([9]; 48 h)?
Its growth is “++”.

What about the color of colonies ([10]; 24 h) of the same compound?
The color of colonies was “Orange”.

And the growth ([10]; 24 h)?
The growth was “++”.

What about the color of colonies ([10]; 48 h) of the same compound?
The color of colonies was “Orange”.

What about the growth ([10]; 48 h) of the same compound?
The growth was “++”.

What about the color of colonies ([11]; 24 h) of the same compound?
The color of colonies was “Orange”.

And the growth ([11]; 24 h)?
The growth was “++”.

And the color of colonies ([11]; 48 h)?
The color of colonies was “Orange”.

And the growth ([11]; 48 h)?
Its growth is “++”.

What about the color of colonies ([12]; 24 h) of the same compound?
Its color of colonies is “Orange”.

And the growth ([12]; 24 h)?
The growth was “++”.

And the color of colonies ([12]; 48 h)?
Its color of colonies is “Orange”.

And the growth ([12]; 48 h)?
The growth was “++”.

What about the color of colonies ([13]; 24 h) of the same compound?
Its color of colonies is “Orange”.

What about the growth ([13]; 24 h) of the same compound?
The growth was “++”.

What about the color of colonies ([13]; 48 h) of the same compound?
The color of colonies was “Orange”.

What about the growth ([13]; 48 h) of the same compound?
Its growth is “++”.

And the color of colonies ([14]; 24 h)?
The color of colonies was “Colorless”.

And the growth ([14]; 24 h)?
The growth was “++”.

What about the color of colonies ([14]; 48 h) of the same compound?
Its color of colonies is “Colorless”.

What about the growth ([14]; 48 h) of the same compound?
Its growth is “++”.

And the color of colonies ([15]; 24 h)?
Its color of colonies is “Colorless”.

What about the growth ([15]; 24 h) of the same compound?
The growth was “++”.

And the color of colonies ([15]; 48 h)?
The color of colonies was “Colorless”.

And the growth ([15]; 48 h)?
Its growth is “++”.

With `C[C@H](N)C(=O)N[C@@H](C)C(=O)Nc1ccc(-c2c3ccccc3[n+](C)c3ccccc23)cc1.[Cl-]` [L-Ala-L-Ala-4-AP-10-MA] as the compound, how does the color of colonies ([1]; 24 h) read?
The color of colonies was “Orange”.

What about the growth ([1]; 24 h) of the same compound?
The growth was “++”.

And the color of colonies ([1]; 48 h)?
The color of colonies was “Orange”.

And the growth ([1]; 48 h)?
Its growth is “++”.

What about the color of colonies ([2]; 24 h) of the same compound?
The color of colonies was “Orange”.

What about the growth ([2]; 24 h) of the same compound?
Its growth is “++”.

What about the color of colonies ([2]; 48 h) of the same compound?
The color of colonies was “Orange”.

And the growth ([2]; 48 h)?
The growth was “++”.

What about the color of colonies ([3]; 24 h) of the same compound?
Its color of colonies is “Orange”.

What about the growth ([3]; 24 h) of the same compound?
Its growth is “++”.

And the color of colonies ([3]; 48 h)?
The color of colonies was “Orange”.

What about the growth ([3]; 48 h) of the same compound?
Its growth is “++”.

And the color of colonies ([4]; 24 h)?
Its color of colonies is “Colorless”.

And the growth ([4]; 24 h)?
Its growth is “++”.

And the color of colonies ([4]; 48 h)?
Its color of colonies is “Colorless”.

What about the growth ([4]; 48 h) of the same compound?
The growth was “++”.

And the color of colonies ([5]; 24 h)?
Its color of colonies is “Colorless”.

What about the growth ([5]; 24 h) of the same compound?
The growth was “++”.

And the color of colonies ([5]; 48 h)?
Its color of colonies is “Colorless”.

And the growth ([5]; 48 h)?
Its growth is “++”.

And the color of colonies ([6]; 24 h)?
The color of colonies was “Colorless”.

What about the growth ([6]; 24 h) of the same compound?
Its growth is “++”.

What about the color of colonies ([6]; 48 h) of the same compound?
The color of colonies was “Colorless”.

And the growth ([6]; 48 h)?
Its growth is “++”.

What about the color of colonies ([7]; 24 h) of the same compound?
Its color of colonies is “Orange”.

And the growth ([7]; 24 h)?
The growth was “++”.

What about the color of colonies ([7]; 48 h) of the same compound?
The color of colonies was “Orange”.

And the growth ([7]; 48 h)?
The growth was “++”.

And the color of colonies ([8]; 24 h)?
The color of colonies was “Colorless”.

And the growth ([8]; 24 h)?
Its growth is “++”.

And the color of colonies ([8]; 48 h)?
Its color of colonies is “Colorless”.

What about the growth ([8]; 48 h) of the same compound?
Its growth is “++”.

And the color of colonies ([9]; 24 h)?
Its color of colonies is “Orange”.

And the growth ([9]; 24 h)?
Its growth is “++”.

What about the color of colonies ([9]; 48 h) of the same compound?
Its color of colonies is “Orange”.

And the growth ([9]; 48 h)?
Its growth is “++”.

What about the color of colonies ([10]; 24 h) of the same compound?
Its color of colonies is “Orange”.

What about the growth ([10]; 24 h) of the same compound?
Its growth is “++”.

What about the color of colonies ([10]; 48 h) of the same compound?
The color of colonies was “Orange”.

What about the growth ([10]; 48 h) of the same compound?
The growth was “++”.

What about the color of colonies ([11]; 24 h) of the same compound?
Its color of colonies is “Orange”.

What about the growth ([11]; 24 h) of the same compound?
The growth was “++”.

And the color of colonies ([11]; 48 h)?
The color of colonies was “Orange”.

And the growth ([11]; 48 h)?
The growth was “++”.

And the color of colonies ([12]; 24 h)?
Its color of colonies is “Orange”.

What about the growth ([12]; 24 h) of the same compound?
The growth was “++”.

And the color of colonies ([12]; 48 h)?
Its color of colonies is “Orange”.

And the growth ([12]; 48 h)?
Its growth is “++”.

What about the color of colonies ([13]; 24 h) of the same compound?
The color of colonies was “Orange”.

And the growth ([13]; 24 h)?
The growth was “++”.

What about the color of colonies ([13]; 48 h) of the same compound?
Its color of colonies is “Orange”.

What about the growth ([13]; 48 h) of the same compound?
The growth was “++”.

And the color of colonies ([14]; 24 h)?
Its color of colonies is “Colorless”.

And the growth ([14]; 24 h)?
Its growth is “++”.

And the color of colonies ([14]; 48 h)?
The color of colonies was “Colorless”.

What about the growth ([14]; 48 h) of the same compound?
The growth was “++”.

What about the growth ([15]; 24 h) of the same compound?
Its growth is “NG”.

And the growth ([15]; 48 h)?
The growth was “NG”.
